This is an account of results in US9771358B2, “Dihydropyrimidine compounds and their application in pharmaceuticals” (SUNSHINE LAKE PHARMA CO., LTD., priority 2014, dated 2017).

SMILES strings stand for the structures. Where only a bound is given, the exact number is not on record here.

The assay relates to HBV. The assay is described as follows: In-vitro anti-HBV activity in stable HBV-producing cell line (HepG2.2.15), HBV DNA by qPCR. It counts as cell-based. Conditions: Hepatitis B virus. The method, then: HBV DNA contents in cell culture fluid were detected by the qPCR-based assay and 50% effective concentration (EC50) values of the compounds against HBV were calculated. Specific procedures are as follows:
HepG2.2.15 cells were seeded into each well of 96-well plates, 40,000 cells per well. Cells were treated with cell culture medium containing compounds with different concentrations for 24 hours after cell seeding. The final concentration of each compound was 16.4 μM in each well and each compound was diluted to desired concentration using 3-fold gradient dilution protocol, 9 diluted points in duplicate. The culture mediums containing the compounds were refreshed on day 4 post cell seeding. Culture media were collected from the HepG2.2.15 plates on day 7 post cell seeding followed by HBV DNA extraction.
HBV DNA extraction: The HBV DNA extraction was performed using QIAamp 96 DNA Blood Kit (QIAGEN 51161).
PCR for quantification: PCR mix was prepared according to PCR system. PCR mix was dispensed to 96-well optical reaction plates (special for quantification). The standard diluted proportionally was added. Then the sample was added; The plates were sealed with optical adhesive film; PCR system was performed according to programs.
Percentage of HBV inhibition of DNA replication by compound was calculated using the following equation: % Inh.=[1-HBV DNA quantity of sample/HBV DNA quantity of DMSO control]×100.
Calculating EC50 value of compounds to HBV replication: the EC50 values were calculated based on “four-parameter logistic equation” and using GraphPad Prism 5 analysis software.
A general note: Quantitative PCR measures a nucleic acid by following its amplification.

Setting [1] is: 168 h, HepG2.2.15 cells, HBV DNA in culture fluid, day 7, top concentration 16.4 μM.

Consider `COC(=O)C1=C(CN2CCOC[C@@H]2CCC(=O)O)NC(c2nccs2)=N[C@H]1c1ccc(F)cc1Br` [Example 16, 3-((S)-4-(((R)-6-(2-Bromo-4-fluorophenyl)-5-(methoxycarbonyl)-2-(thiazol-2-yl)-3,6-dihydropyrimidin-4-yl)methyl)morpholin-3-yl)propanoic acid], for which the EC50 (commonly the midpoint of the concentration-response curve) under setting [1] amounted to 9 nM.

Under setting [1], `CCOC(=O)C1=C(CN2CCOC[C@@H]2CCC(=O)O)NC(c2nccs2)=N[C@H]1c1ccc(F)cc1Cl` [Example 17, 3-((S)-4-(((R)-6-(2-Chloro-4-fluorophenyl)-5-(ethoxycarbonyl)-2-(thiazol-2-yl)-3,6-dihydropyrimidin-4-yl)methyl)morpholin-3-yl)propanoic acid] gave an EC50 of 12 nM.

Regarding `COC(=O)C1=C(CN2CCOC[C@@H]2CCC(=O)O)NC(c2nccs2)=N[C@H]1c1ccc(F)cc1Cl` [Example 18, 3-((S)-4-(((R)-6-(2-Chloro-4-fluorophenyl)-5-(methoxycarbonyl)-2-(thiazol-2-yl)-3,6-dihydropyrimidin-4-yl)methyl)morpholin-3-yl)propanoic acid], the EC50 under setting [1] amounted to 10 nM.

Under setting [1], `CCOC(=O)C1=C(CN2CCOC[C@@H]2CCC(=O)O)NC(c2nccs2)=N[C@H]1c1ccc(Cl)cc1Cl` [Example 19, 3-((S)-4-(((R)-6-(2,4-Dichlorophenyl)-5-(ethoxycarbonyl)-2-(thiazol-2-yl)-3,6-dihydropyrimidin-4-yl)methyl)morpholin-3-yl)propanoic acid] showed an EC50 of 6 nM.

Compound `COC(=O)C1=C(CN2CCOC[C@@H]2CCC(=O)O)NC(c2nccs2)=N[C@H]1c1ccc(Cl)cc1Cl` [Example 20, 3-((S)-4-(((R)-6-(2,4-Dichlorophenyl)-5-(methoxycarbonyl)-2-(thiazol-2-yl)-3,6-dihydropyrimidin-4-yl)methyl)morpholin-3-yl)propanoic acid] returned an EC50 under setting [1] of 5.5 nM.

`CCOC(=O)C1=C(CN2CCO[C@@H](CCC(=O)O)C2)NC(c2nccs2)=N[C@H]1c1ccc(F)cc1Br` [Example 21, 3-((S)-4-(((R)-6-(2-Bromo-4-fluorophenyl)-5-(ethoxycarbonyl)-2-(thiazol-2-yl)-3,6-dihydropyrimidin-4-yl)methyl)morpholin-2-yl)propanoic acid] gave a half-maximal effective concentration (EC50) under setting [1] of 93.6 nM.

As for `COC(=O)C1=C(CN2CCO[C@@H](CCC(=O)O)C2)NC(c2nccs2)=N[C@H]1c1ccc(F)cc1Br` [Example 22, 3-((S)-4-(((R)-6-(2-Bromo-4-fluorophenyl)-5-(methoxycarbonyl)-2-(thiazol-2-yl)-3,6-dihydropyrimidin-4-yl)methyl)morpholin-2-yl)propanoic acid], the EC50 under setting [1] turned out to be 89 nM.

Regarding `CCOC(=O)C1=C(CN2CCO[C@@H](CCC(=O)O)C2)NC(c2nccs2)=N[C@H]1c1ccc(F)cc1Cl` [Example 23, 3-((S)-4-(((R)-6-(2-Chloro-4-fluorophenyl)-5-(ethoxycarbonyl)-2-(thiazol-2-yl)-3,6-dihydropyrimidin-4-yl)methyl)morpholin-2-yl)propanoic acid], the EC50 reads like this: under setting [1], 110 nM; (HepG2.2.15, isomers of compound of formular (II)) 110 nM.

`COC(=O)C1=C(CN2CCO[C@@H](CCC(=O)O)C2)NC(c2nccs2)=N[C@H]1c1ccc(F)cc1Cl` [Example 24, 3-((S)-4-(((R)-6-(2-Chloro-4-fluorophenyl)-5-(methoxycarbonyl)-2-(thiazol-2-yl)-3,6-dihydropyrimidin-4-yl)methyl)morpholin-2-yl)propanoic acid] registered an EC50 under setting [1] of 107 nM.

Under setting [1], `CCOC(=O)C1=C(CN2CCO[C@@H](CCC(=O)O)C2)NC(c2nccs2)=N[C@H]1c1ccc(Cl)cc1Cl` [Example 25, 3-((S)-4-(((R)-6-(2,4-Dichlorophenyl)-5-(ethoxycarbonyl)-2-(thiazol-2-yl)-3,6-dihydropyrimidin-4-yl)methyl)morpholin-2-yl)propanoic acid] displayed an EC50 of 86 nM.

`COC(=O)C1=C(CN2CCO[C@@H](CCC(=O)O)C2)NC(c2nccs2)=N[C@H]1c1ccc(Cl)cc1Cl` [Example 26, 3-((S)-4-(((R)-6-(2,4-Dichlorophenyl)-5-(methoxycarbonyl)-2-(thiazol-2-yl)-3,6-dihydropyrimidin-4-yl)methyl)morpholin-2-yl)propanoic acid] gave a concentration for a half-maximal effect (EC50) under setting [1] of 82 nM.

The compound `CCOC(=O)C1=C(CN2CCO[C@H](CCC(=O)O)C2)NC(c2nccs2)=N[C@@H]1c1ccc(F)cc1Br` [Example 35, 3-((R)-4-(((S)-6-(2-Bromo-4-fluorophenyl)-5-(ethoxycarbonyl)-2-(thiazol-2-yl)-3,6-dihydropyrimidin-4-yl)methyl)morpholin-2-yl)propanoic acid] registered an EC50 under setting [1] greater than 12200 nM.

As to `CCOC(=O)C1=C(CN2CCO[C@@H](CCC(=O)O)C2)NC(c2nccs2)=N[C@@H]1c1ccc(F)cc1Br` [Example 36, 3-((S)-4-(((S)-6-(2-Bromo-4-fluorophenyl)-5-(ethoxycarbonyl)-2-(thiazol-2-yl)-3,6-dihydropyrimidin-4-yl)methyl)morpholin-2-yl)propanoic acid], the EC50 under setting [1] is greater than 14500 nM.

Under setting [1], `CCOC(=O)C1=C(CN2CCO[C@H](CCC(=O)O)C2)NC(c2nccs2)=N[C@@H]1c1ccc(F)cc1Cl` [Example 37, 3-((R)-4-(((S)-6-(2-Chloro-4-fluorophenyl)-5-(ethoxycarbonyl)-2-(thiazol-2-yl)-3,6-dihydropyrimidin-4-yl)methyl)morpholin-2-yl)propanoic acid] returned an EC50 greater than 16400 nM.

`CCOC(=O)C1=C(CN2CCO[C@@H](CCC(=O)O)C2)NC(c2nccs2)=N[C@@H]1c1ccc(F)cc1Cl` [Example 38, 3-((S)-4-(((S)-6-(2-Chloro-4-fluorophenyl)-5-(ethoxycarbonyl)-2-(thiazol-2-yl)-3,6-dihydropyrimidin-4-yl)methyl)morpholin-2-yl)propanoic acid]: under setting [1], the EC50 is greater than 16400 nM.

`COC(=O)C1=C(CN2CCO[C@H](CCC(=O)O)C2)NC(c2nccs2)=N[C@@H]1c1ccc(F)cc1Cl` [Example 39, 3-((R)-4-(((S)-6-(2-Chloro-4-fluorophenyl)-5-(methoxycarbonyl)-2-(thiazol-2-yl)-3,6-dihydropyrimidin-4-yl)methyl)morpholin-2-yl)propanoic acid] returned an EC50 under setting [1] greater than 15200 nM.

`COC(=O)C1=C(CN2CCO[C@@H](CCC(=O)O)C2)NC(c2nccs2)=N[C@@H]1c1ccc(F)cc1Cl` [Example 40, 3-((S)-4-(((S)-6-(2-Chloro-4-fluorophenyl)-5-(methoxycarbonyl)-2-(thiazol-2-yl)-3,6-dihydropyrimidin-4-yl)methyl)morpholin-2-yl)propanoic acid] displayed an EC50 under setting [1] greater than 16400 nM.

In turn, `COC(=O)C1=C(CN2CCO[C@H](CCC(=O)O)C2)NC(c2nccs2)=N[C@@H]1c1ccc(F)cc1Br` [Example 41, 3-((R)-4-(((S)-6-(2-Bromo-4-fluorophenyl)-5-(methoxycarbonyl)-2-(thiazol-2-yl)-3,6-dihydropyrimidin-4-yl)methyl)morpholin-2-yl)propanoic acid] returned an EC50 under setting [1] greater than 12800 nM.

With `COC(=O)C1=C(CN2CCO[C@@H](CCC(=O)O)C2)NC(c2nccs2)=N[C@@H]1c1ccc(F)cc1Br` [Example 42, 3-((S)-4-(((S)-6-(2-Bromo-4-fluorophenyl)-5-(methoxycarbonyl)-2-(thiazol-2-yl)-3,6-dihydropyrimidin-4-yl)methyl)morpholin-2-yl)propanoic acid], under setting [1], the EC50 was greater than 15300 nM.

Consider `CCOC(=O)C1=C(CN2CCO[C@H](CCC(=O)O)C2)NC(c2nccs2)=N[C@@H]1c1ccc(Cl)cc1Cl` [Example 43, 3-((R)-4-(((S)-6-(2,4-Dichlorophenyl)-5-(ethoxycarbonyl)-2-(thiazol-2-yl)-3,6-dihydropyrimidin-4-yl)methyl)morpholin-2-yl)propanoic acid], for which the EC50 under setting [1] is greater than 11700 nM.

Under setting [1], `CCOC(=O)C1=C(CN2CCO[C@@H](CCC(=O)O)C2)NC(c2nccs2)=N[C@@H]1c1ccc(Cl)cc1Cl` [Example 44, 3-((S)-4-(((S)-6-(2,4-Dichlorophenyl)-5-(ethoxycarbonyl)-2-(thiazol-2-yl)-3,6-dihydropyrimidin-4-yl)methyl)morpholin-2-yl)propanoic acid] returned an EC50 greater than 14900 nM.

On to `COC(=O)C1=C(CN2CCO[C@H](CCC(=O)O)C2)NC(c2nccs2)=N[C@@H]1c1ccc(Cl)cc1Cl` [Example 45, 3-((R)-4-(((S)-6-(2,4-dichlorophenyl)-5-(methoxycarbonyl)-2-(thiazol-2-yl)-3,6-dihydropyrimidin-4-yl)methyl)morpholin-2-yl)propanoic acid], for which, under setting [1], the EC50 is greater than 11300 nM.

In turn, `COC(=O)C1=C(CN2CCO[C@@H](CCC(=O)O)C2)NC(c2nccs2)=N[C@@H]1c1ccc(Cl)cc1Cl` [Example 46, 3-((S)-4-(((S)-6-(2,4-Dichlorophenyl)-5-(methoxycarbonyl)-2-(thiazol-2-yl)-3,6-dihydropyrimidin-4-yl)methyl)morpholin-2-yl)propanoic acid] yielded an EC50 under setting [1] greater than 14200 nM.

Under setting [1], `CCOC(=O)C1=C(CN2CCOC[C@H]2CCC(=O)O)NC(c2nccs2)=N[C@@H]1c1ccc(F)cc1Br` [Example 47, 3-((R)-4-(((S)-6-(2-Bromo-4-fluorophenyl)-5-(ethoxycarbonyl)-2-(thiazol-2-yl)-3,6-dihydropyrimidin-4-yl)methyl)morpholin-3-yl)propanoic acid] gave an EC50 greater than 16400 nM.
